# Test system: corn seeds
# Assay: Petri dish seed germination assay, corn
# Type: in vivo
# Procedure: A series of Petri dish seed assays was conducted to evaluate the effects NPG on the seed germination rates of corn, soybean, and canola seeds subjected to cold stress, salt stress and non-stressed conditions (salt stress only for canola). Assays were performed with ten replications of ten seeds/plate (100 total seeds). NPG was applied to seeds at the specified concentrations prior to being placed in Petri plates. Seeds designated for Salt Stress Experiments 1 & 2 were placed in Petri dishes containing a 100 mM NaCl solution and incubated at 21° C.-22° C. in the dark. Cold stress Petri dishes were incubated at 15° C. in the dark. Untreated Controls were incubated at 21° C.-22° C. in the dark as were seeds utilized in the separately conducted non-stressed germination assays. Data was recorded as percent germination at designated times after plating. Statistical analyses were performed using one-way Anova and Kruskal-Wallis one-way analysis of variance on rank combined with Dunn's all pairwise multiple comparison procedure (α=0.05).
substance,measurement,setting,value
"Methyl 2-deoxy-2-N-(hexadece-9,10-cis-eneoyl)-β-D-glucopyranoside [NPG]",Corn Seed Germination,"Salt Stress (100 mM NaCl) Experiment 1, 10^−6M, 30 HAP",34a %
same,Corn Seed Germination,"Salt Stress (100 mM NaCl) Experiment 1, 10^−6M, 40 HAP",83a %
same,Corn Seed Germination,"Salt Stress (100 mM NaCl) Experiment 1, 10^−6M, 48 HAP",96a %
same,Corn Seed Germination,"Salt Stress (100 mM NaCl) Experiment 1, 10^−7M, 30 HAP",23a %
same,Corn Seed Germination,"Salt Stress (100 mM NaCl) Experiment 1, 10^−7M, 40 HAP",68a %
same,Corn Seed Germination,"Salt Stress (100 mM NaCl) Experiment 1, 10^−7M, 48 HAP",91a %

# — patent publication US20150305333A1, “USE OF GLUCOSAMINE AMIDES AS PLANT GROWTH AND YIELD ENHANCERS” (PIONEER HI-BRED INTERNATIONAL, INC., priority 2012, published 2015)
